Measured values as given in publication PMC8541353, “A Novel Phenylpyrrolidine Derivative: Synthesis and Effect on Cognitive Functions in Rats with Experimental Ishemic Stroke” (Molecules, 2021).

Tests used:
intact animals = experiment: Open field test (OFT) in intact animals; format: in vivo, Wistar rats; conditions: intact rats, day 7; compound 1 125 mg kg^−1, piracetam 300 mg kg^−1, intraperitoneally for 5 days; mean and SD
Description: Before the study, the intact animals were subjected to the hole-board test (HBT), weighed, and stratified into three uniform groups in terms of orientational/exploratory activity and weight. […] On day 7, we performed OFT (open field test), followed by LDB (light—dark box test) on day 8 (Scheme 3, Step 1). These tests assess the activity and describe the behavior of the animals. According to OFT, compound 1 decreased the vertical activity and the immobility time compared to the saline-treated group (Table 2).
(§1) Before conducting the experiments, the animals underwent the HBT and were allocated to groups based on their behavior score and weight. Kullback–Leibler divergence method for allocation based on two numerical parameters was used for allocation. We used a sum score for behavior tests and weight. Subsequently, two experimental series were performed. In the first series, rat behavior without stroke modeling after injection of compound 1 (experimental group, n = 10) or saline (control group, n = 10) was evaluated (Scheme 3a). […] Compound 1 was injected at a dose of 125 mg kg^−1 and an injection volume of 0.5 mL. […] For the experiments, the following predetermined exclusion criteria were used: (1) incomplete MCAO indicated by an incomplete lesion on magnetic resonance imaging (MRI) after 24 h [n = 4]and (2) post-operative weight loss of > 20% and severe animal condition within the first post-stroke 48 h [n = 3]. Animals reached humane endpoints based on the absence of nociceptive reflex withdrawal responses, hypothermia, and heart rate reduction to 100–150 beats min^−1. As steroid treatment could have influenced the experiment, rats were humanely euthanized according to the ethical protocol. The experiment design is presented in Scheme 3b.
In the first experimental series, the following test systems were used: HBT (OpenScience, Russia), OFT (OpenScience), and LDT (OpenScience). The design for the second experimental series was as follows. All rat behavioral changes were evaluated during the four weeks after stroke simulation. Individuals who performed these procedures were double-blinded. General neurological disorders were assessed using the modified neurological severity score (mNSS). Motor and cognitive impairment were evaluated using the following functional tests: BWT (OpenScience), HBT (OpenScience), and OFT (OpenScience). The BWT was performed between postoperative days 12 and 14. In this test, motor dysfunction in all four limbs was evaluated; specifically, the number of steps, errors, and slides were counted. The overall score was calculated using the following formula: score = errors + 0.5 × slides × 100/total number of steps [47]. The beam apparatus consists of 165 cm beams with a flat surface of 10 mm or 6 mm width, resting 100 cm above the table top on two poles. A black box is placed at the end of the beam as the finish point. Nesting material from home cages is placed in the black box to attract the rat to the finish point. A lamp (with 60-watt light bulb) is used at the start to stimulate the animals to move towards the end.

rats with MCAO [1] = experiment: Cerebral infarct volume by MRI in transient MCAO model; format: in vivo, Wistar rats; conditions: for Infarct volume at 24 h: 24 h after MCAO, before treatment (group baseline); for Infarct volume by day 28: day 28 after MCAO, compound 1 125 mg kg^−1, piracetam 300 mg kg^−1 daily from 24 h to day 5, p = 0.17
Experimental: (§2) A MCAO animal model was used to characterize the effects of compound 1 on the development and resolution of stroke. At the baseline, we performed the MRI and hole-board test before MCAO surgery. Once animals recovered after the surgery, we stratified them based on their background psycho-emotional status and performed a control MRI to access whether the occlusion was sufficient or not. […] From 24 h to day 7, the neurological status was assessed daily according to the neurological scale (mNSS). By the end of day 7, animals underwent MRI. In addition, MRI was performed on days 14 and 28 (Shceme 3)The hole-board test was repeated on days 10 and 24. The degree of motor function impairment, the deficit of exploratory behavior, and the recovery process were assessed in the beam walking test (BWT), which was performed twice on days 12 and 14. An open field test was carried out on days 16 and 26.
as §1
The rats were anesthetized initially using 3% isoflurane and maintained with a mixture of 2–2.5% isoflurane and 97.5–98% atmospheric air (EZ-7000 Classic System, E-Z Anesthesia® Systems). […]
During the procedure, the rats were maintained under inhalation anesthesia as mentioned above. […] The volume of the hyperintensity ischemic stroke area was calculated by summing the areas of adjacent cross-sections using the following formula: Volume = (S1 + … + Sn) × (h + d), where S1, …, Sn are areas measured in n slices, h is the slice thickness, and d is the interval between slices.

rats with MCAO [2] = experiment: Neurological deficit (mNSS) in MCAO model; format: in vivo, Wistar rats; conditions: 24 h to day 7
Experimental: as §2, with “26. […]” for “26.”
In the first experimental series, the following test systems were used: HBT (OpenScience, Russia), OFT (OpenScience), and LDT (OpenScience). […] All rat behavioral changes were evaluated during the four weeks after stroke simulation. […] General neurological disorders were assessed using the modified neurological severity score (mNSS). Motor and cognitive impairment were evaluated using the following functional tests: BWT (OpenScience), HBT (OpenScience), and OFT (OpenScience). […]

[3] = Reported BBB permeability; conditions: compound 1, no reference given; own data
Description: Table 5 Predicted permeability of ampakines in silico and in the blood–brain barrier (BBB). | column: Literature Report of BBB Permeability

[4] = cited from earlier work
[5] = tested on: patients with cerebral ischemia-induced short-term memory/cognitive deterioration; conditions: after piracetam; cited from earlier work

Row | SMILES | Crossings (n) (intact animals) | Grooming time (intact animals) | Immobility duration (intact animals) | Number of center sector crossings (center) (n) (intact animals) | Vertical activity (n) (intact animals) | Infarct volume at 24 h (rats with MCAO [1]) | Infarct volume by day 28 (rats with MCAO [1]) | Regression of neurological symptoms (rats with MCAO [2]) | BBB Permeability (column Literature Report of BBB Permeability) [3] | Increase of BBB permeability in animals with ischemic stroke ([4]; animals with ischemic stroke, ref 25 (Paliwal et al. 2018)) | Literature Report of BBB Permeability [4] | Patients who improved their memory and cognitive functions [5]
1 | O=C(CN1CC(c2ccccc2)CC1=O)NCCS(=O)(=O)[O-].[K+] (centres unmarked) [Compound 1, potassium 2-[2-(2-oxo-4-phenylpyrrolidin-1-yl)acetamido]ethane-1-sulfonate] | 53.7 ± 10.3 n | 40.6 ± 33.2 s | 12.8 ± 8.4 s | 1.6 ± 0.6 n | 10.3 ± 4.3 n | 133.6 ± 24.1 mm^3 | 91.2 ± 18.9 mm^3 | 35% | Low | – | – | –
2 | NC(=O)CN1CCCC1=O [Piracetam, reference compound] | 65.4 ± 20.4 n | 14.4 ± 9.4 s | 16.0 ± 10.4 s | 1.4 ± 1.2 n | 15.9 ± 7.5 n | 128.5 ± 15.5 mm^3 | 86.0 ± 13.5 mm^3 | 25% | – | 3.5 fold | Very good [21, 22] | around 25%
